The nature of test [1]: Compound was evaluated for inhibition of metallo beta lactamase from Aeromonas hydrophilia AE036. Also noted: species or system Aeromonas hydrophila.
The next test deals with Aeromonas hydrophila. Nature of the test: Compound was evaluated for kinetic data for the inhibition of metallo beta lactamase from Aeromonas hydrophilia AE036.
Test [2] can be described thus: Compound was evaluated for inhibition of metallo beta lactamase from bacillus cereus 569H.
The nature of test [3]: Compound was evaluated for inhibition of metallo beta lactamase from Pseudomonas aeruginosa 101.
The nature of test [4]: Compound was evaluated for inhibition of metallo beta lactamase from xanthomonas maltophilia ULA-511. Details: species or system Stenotrophomonas maltophilia.
Test [5] in a line: Ratio of K+2/K of the compound.

Take `O=C(COc1ccccc1)N[C@@H](Cc1ccccc1)C(=O)C(F)(F)F`: the Ki in test [1] is 6 µM; in test [2], 500 µM; in test [3] it was 530 µM; in test [4] it was 15 µM. Moreover, the k+2 in the test on Aeromonas hydrophila was determined as 4.3 s⁻¹. Moreover, the k+2/k in test [5] amounted to 7.2 M⁻¹ s⁻¹.
For the compound `C[C@H](NC(=O)COc1ccccc1)[C@@H](O)C(F)(F)F`, the Ki was 3000 µM in test [2], 400 µM in test [3] and > 5000 µM in test [4].
With `O=C(COc1ccccc1)N[C@@H](Cc1ccccc1)[C@@H](O)C(F)(F)F`, the Ki is 19 µM in test [1], 1000 µM in test [2], 900 µM in test [3] and > 5000 µM in test [4]. Also, the k+2 in the test with Aeromonas hydrophila turned out to be 4.3 s⁻¹. Further, the k+2/k in test [5] came out at 2.3 M⁻¹ s⁻¹.
`O=C(COc1ccccc1)N[C@H](Cc1ccccc1)C(=O)C(F)(F)F` had a Ki in test [2] of 1000 µM.
On to `C[C@H](NC(=O)COc1ccccc1)C(=O)C(F)(F)F`, for which the Ki in test [1] stood at 44 µM; in test [2] it was 300 µM; in test [3], 300 µM; in test [4] it was 1.5 µM. This compound yielded a k+2 in the test on Aeromonas hydrophila of 4 s⁻¹. Moreover, in test [5], the k+2/k came out at 9.1 M⁻¹ s⁻¹.
Turning to `O=C(COc1ccccc1)N[C@H](Cc1ccccc1)[C@@H](O)C(F)(F)F`, the Ki was 20 µM in test [1], 30 µM in test [2], 60 µM in test [3] and > 5000 µM in test [4]. For the same compound, the k+2 in the test with Aeromonas hydrophila came out at 3.9 s⁻¹. In addition, in test [5], the k+2/k worked out at 1.9 M⁻¹ s⁻¹.
Consider `C[C@@H](NC(=O)COc1ccccc1)C(=O)C(F)(F)F`, for which the Ki in test [1] worked out at 11 µM; in test [2], 700 µM; in test [3], 500 µM; in test [4], 3 µM. The compound further yielded a k+2 with Aeromonas hydrophila of 1 s⁻¹. The k+2/k in test [5] is 9.1 M⁻¹ s⁻¹.
Consider `C[C@@H](NC(=O)COc1ccccc1)[C@@H](O)C(F)(F)F`, for which the Ki in test [1] stood at 217 µM; in test [2], 700 µM; in test [3] it was 400 µM; in test [4] it was 35 µM. The compound further registered a k+2 in the test with Aeromonas hydrophila of 1.1 s⁻¹. Also, in test [5], the k+2/k is 5.25 M⁻¹ s⁻¹.

A word on the Ki: it is the equilibrium dissociation constant of an inhibitor or competing ligand from its target. Low readings indicate higher affinity, high ones lower affinity.

Source of the values: ChEMBL document CHEMBL1129199, “Trifluoromethyl alcohol and ketone inhibitors of metallo--lactamases” (Bioorg Med Chem Lett, 1996).
